# Measurements from patent publication US20240416143A1, “PHOTONIC ANTIMICROBIAL WOUND SURFACE DRESSING” (The General Hospital Corporation, priority 2021, published 2024).
# How the values were obtained:
# [1] = UV-Vis absorption spectroscopy of menadione; assay type: physicochemical
# Experimental: Stock solutions of menadione (10 mg/mL) were prepared in DMSO only and in DMSO/Tween (1:1) to improve the solubility. Different concentrations of menadione were prepared to make a calibration curve by diluting the stock solution in PBS so that the final solution was either 1% DMSO or 1% DMSO/Tween. The absorbance spectra were measured using an Evolution™ 300 UV-Vis Spectrophotometer (Thermo Scientific, Waltham, Massachusetts, USA). The calibration curve was measured, and molar absorption coefficient calculated.
# Thus, we dissolved the menadione in two conditions: in PBS containing either 1% DMSO or 1% DMSO/Tween80 at 400 μM. Tween 80 is a surfactant and the idea is to mix with the DMSO before to add to PBS is due to necessity to improve the solubility of menadione in aqueous solution. We measured the absorption spectrum in both conditions to analyze if there is any change in optical properties. The range of wavelength absorption of menadione was measured between 200-800 nm (see FIG. 12B) to choose the optimum wavelength of the light absorption spectra. […] The maximum wavelength of absorption found was 340 nm for both conditions. […] The molar absorptivity coefficient was compared in different wavelength according with the Table 1.
# [2] = test system: MRSA; experiment: MIC of menadione by broth microdilution, with or without aBL; assay type: cell-based, methicillin-resistant Staphylococcus aureus; conditions: for MIC: Staphylococcus aureus, MRSA, light or radiation study
# Experimental: The MICs of menadione in different bacterial strains were determined by a standard broth microdilution assay according to the Clinical and Laboratory Standards Institute. Briefly, menadione was prepared at 100 mg/mL in Tween 80/DMSO (1:1) as a stock solution. The stock solution was diluted to 2048 μg/mL in BHI and then serial dilutions were performed to 1024-0.015 μg/mL in a 96-well plate. Then, a 10 μL stationary growth-phase culture of 10^8 CFU/mL bacteria in BHI broth was added to the 96-well plate containing the serial dilutions of menadione. The medium containing a similar amount of Tween 80/DMSO (1:1) served as a control. The microplates were incubated at 37° C. for 24 hours and the lowest concentration of the compound capable of completely inhibiting bacterial growth was referred to as the MIC.
# However, we investigated the effects of aBL (50 mW/cm^2) in potentiating the antibacterial activities of menadione in the three strains of bacteria. […] The highest fluence that we investigated was 125 J/cm^2, when we irradiated the bacteria for 42 minutes.
# [3] = test system: MRSA biofilm; experiment: Photoinactivation of 48-hour in vitro biofilms by adjuvant/antibiotic + antimicrobial blue light; assay type: cell-based, methicillin-resistant Staphylococcus aureus; conditions: for Bacterial Log10 CFU/mL Reduction after menadione + aBL: MRSA USA 300 biofilm 48 h
# Experimental: The bacterial suspension was grown in a shaking incubator overnight in BHI broth. Cells were collected by centrifugation at 4,000 rpm for 5 minutes and suspended in PBS at a density of 10^6 CFU/mL. Then, the biofilms were grown for 48 hours (unless otherwise specified) in 96-well microtiter plates as described previously [Ref. 27], with a renewal of the media every 24 hours. Following the 48-hour biofilm growth, fresh 200 μL of PBS with or without menadione in different concentrations were added to the wells and the biofilms were incubated in the dark at 25° C. for 1 hour: 0, 0.5, 1, and 2 μg/mL for MRSA USA300, AF0001, IQ0064; 0, 1, 10, 30 and 50 μg/mL for P. aeruginosa PA01; and 0, 100, and 150 μg/mL for E. coli ATCC 25922. After that, the control and the menadione-treated biofilms were maintained without irradiation (“menadione/dark”). Simultaneously, the aBL was delivered to the other biofilm groups testing different power densities (50, 30, 15, and 10 mW/cm^2) while keeping the same radiant exposure of 250 J/cm^2. After the light exposure, the biofilms were carefully washed two times with PBS and 200 μL of PBS was added to each well. Then, the bacterial biofilms in each well were harvested by scratching with a sterile pipette tip and three wells of each group were pooled together in a 1.5 mL microcentrifuge tube. The total volume obtained, 600 μL (3 wells), was sonicated using a Branson 2510 Water Bath Sonicator (Marshall Scientific, LLC) for 5 minutes and the CFU was determined by 10-fold serial dilutions in PBS on BHI agar plates. CFU was counted after overnight incubation at 37° C. Experiments were performed in triplicate.
# A bacterial suspension was grown in a shaking incubator overnight in BHI broth. Cells were collected by centrifugation at 4,000 rpm for 5 minutes and suspended in PBS at a density of 10^6 CFU/mL. Then, the biofilms were grown for 48 hours in 96-well microtiter plates with a renewal of the media every 24 hours. Following the 48-hour biofilm growth, fresh 200 μL of PBS with the tetracyclines minocycline, doxycycline, and demeclocycline in different concentrations were added to the wells and the biofilms were incubated in the dark at 25° C. for 1 hour: 0, 0.25, 0.5, and 1 μg/mL for minocycline; 0, 0.5, 1, and 2 μg/mL for doxycycline; and 0, 0.5, 1, and 2 for demeclocycline. After that, the control and the tetracycline-treated biofilms were maintained without irradiation (“menadione/dark”). Simultaneously, the aBL (405 nm) was delivered to the other biofilm groups testing different power densities (50, 30 mW/cm^2) while keeping the radiant exposures of 50-250 J/cm^2. After the light exposure, the biofilms were carefully washed two times with PBS and 200 μL of PBS was added to each well. Then, the bacterial biofilms in each well were harvested by scratching with a sterile pipette tip and three wells of each group were pooled together in a 1.5 mL microcentrifuge tube. The total volume obtained, 600 μL (3 wells), was sonicated using a Branson 2510 Water Bath Sonicator (Marshall Scientific, LLC) for 5 minutes and the CFU/mL was determined by 10-fold serial dilutions in PBS on BHI agar plates. CFU was counted after overnight incubation at 37° C.
smiles,measurement,setting,value
"CC1=CC(=O)c2ccccc2C1=O [menadione, 2-methyl-1,4-naphthoquinone]",maximum wavelength of absorption,"[1]; 400 μM in PBS with 1% DMSO or 1% DMSO/Tween80, both conditions",340 nm
same,"ε, molar absorptivity coefficient, λ = 340 nm",[1]; 1% DMSO in PBS,2458 L/mol/cm
same,"ε, molar absorptivity coefficient, λ = 380 nm",[1]; 1% DMSO in PBS,572.1 L/mol/cm
same,"ε, molar absorptivity coefficient, λ = 405 nm",[1]; 1% DMSO in PBS,128.82 L/mol/cm
same,"ε, molar absorptivity coefficient, λ = 340 nm",[1]; 1% DMSO/Tween in PBS,2064 L/mol/cm
same,"ε, molar absorptivity coefficient, λ = 380 nm",[1]; 1% DMSO/Tween in PBS,410.31 L/mol/cm
same,"ε, molar absorptivity coefficient, λ = 405 nm",[1]; 1% DMSO/Tween in PBS,113.85 L/mol/cm
same,MIC,"[2]; 5 min, aBL 15.62 J/cm^2 (5 mins.), 50 mW/cm^2",8 µg/mL
same,MIC,"[2]; 0.175 h, aBL 31.25 J/cm^2 (10.5 mins.), 50 mW/cm^2",4 µg/mL
same,MIC,"[2]; 0.35 h, aBL 62.5 J/cm^2 (21 mins.), 50 mW/cm^2",1 µg/mL
same,MIC,"[2]; 0.7 h, aBL 125 J/cm^2 (42 mins.), 50 mW/cm^2",0.0625 µg/mL
same,MIC,[2]; 0 J/cm^2 (Dark),8 µg/mL
same,lowering of MIC by aBL,[2]; aBL 125 J/cm^2 vs dark,78%
same,biofilm reduction by menadione without irradiation,"[3]; 48 h biofilm, dark",< 1 log killing
same,biofilm killed by menadione plus aBL,"[3]; 48 h biofilm, 1 μg/mL menadione + aBL 250 J/cm^2 (50 mW/cm^2)",4.85 log10 CFU/mL
same,biofilm killed by menadione plus aBL,"[3]; 48 h biofilm, 1 μg/mL menadione + aBL 250 J/cm^2 at 15 mW/cm^2",3.01 log10 CFU/mL
same,Bacterial Log10 CFU/mL Reduction after menadione + aBL,"[3]; 10 mW/cm^2, 250 J/cm^2, 6 hours 56 minutes",−1.91 Log10 CFU/mL
same,Bacterial Log10 CFU/mL Reduction after menadione + aBL,"[3]; 15 mW/cm^2, 250 J/cm^2, 4 hours 37 minutes",−3.01 Log10 CFU/mL
same,Bacterial Log10 CFU/mL Reduction after menadione + aBL,"[3]; 30 mW/cm^2, 250 J/cm^2, 2 hours 18 minutes",−2.28 Log10 CFU/mL
same,Bacterial Log10 CFU/mL Reduction after menadione + aBL,"[3]; 50 mW/cm^2, 250 J/cm^2, 1 hours 23 minutes",−4.85 Log10 CFU/mL
same,Bacterial Log10 CFU/mL Reduction after menadione + aBL,[3]; power density 0 mW/cm^2,0 Log10 CFU/mL
